Assays:
Type in all cases: in vivo
corn [1] = assay: Test Example 4: effect on crop by soil treatment (symbol c); settings: for Effect on crop grade, c: corn: application herbicide amount 320 g/ha; for c: corn, effect grade on crop: 320 g/ha
Summary of the method: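 Soil-treatment setup: crop and weed seeds were spot-sown into sterilized diluvial soil, then buried beneath approximately 1.5 cm of it, and the boxes were housed in a 25–30° C. greenhouse.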

Alopecurus myosuroides [2] = assay: Test Example 5: herbicidal effect by foliage application, plastic box (symbol J); settings: 320 g/ha, 3 weeks after application
Summary of the method: (§1)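 Greenhouse foliar test: seedlings at 14 days, grown 25° C. to 30° C. in sterilized diluvial soil; compound applied as an aqueous dilution of an emulsion; response read 3 weeks after spraying.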

transplanted rice plant = assay: Test Example 1: effect on crop, application before weed generation in submerged conditions (symbol a); settings: application herbicide amount 320 g/ha
Summary of the method: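 Rice at 2.5 leaf stage transplanted into submerged soil (4 cm depth) sown with three weed species; herbicide applied before weed emergence.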

[3] = test system: Echinochloa crus-galli var. crus-galli; assay: Test Example 3: herbicidal effect by foliage application, Wagner pot (symbol H); settings: application herbicide amount 320 g/ha; for H (Echinochloa crus-galli var. crus-galli) herbicidal effect grade: Table 24
Summary of the method: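 Plants sown in submerged alluvial soil (water depth 0.1–0.5 cm) in a 25–30 °C greenhouse and grown 14 days. An emulsion of the compound diluted in water to a set herbicide amount was sprayed uniformly on foliage. Effect on each plant scored 3 weeks after application.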

Amaranthus retroflexus = assay: Test Example 5: herbicidal effect by foliage application, plastic box (symbol N); settings: 320 g/ha, 3 weeks after application
Summary of the method: as §1

Veronica persica = assay: Test Example 5: herbicidal effect by foliage application, plastic box (symbol R); settings: 320 g/ha, 3 weeks after application
Summary of the method: as §1

Abutilon theophrasti = assay: Test Example 4: herbicidal effect by soil treatment (symbol M); settings: for Herbicidal effect grade, M: Abutilon theophrasti: application herbicide amount 320 g/ha; for M: Abutilon theophrasti, herbicidal effect grade: 320 g/ha
Summary of the method: (§2)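 Seeds were sown in sterilized diluvial soil, covered with about 1.5 cm of soil, and the soil surface was sprayed with a water-diluted emulsion of the compound at a predetermined rate. Plants grew in a greenhouse at 25° C. to 30° C.; effects were scored visually 3 weeks after application.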

corn [4] = assay: Test Example 5: effect on crop by foliage application, plastic box (symbol c); settings: 320 g/ha, 3 weeks after application
Summary of the method: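 Crop and weed seeds sown in spots in sterilized diluvial soil in plastic boxes and covered with about 1.5 cm soil. Plants raised in a greenhouse at 25° C. to 30° C. for foliar application.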

Digitaria ciliaris = assay: Test Example 5: herbicidal effect by foliage application, plastic box (symbol F); settings: 320 g/ha, 3 weeks after application
Summary of the method: as §1

Apera spica-venti = assay: Test Example 4: herbicidal effect by soil treatment (symbol L); settings: for Herbicidal effect grade, L: Apera spica-venti: application herbicide amount 320 g/ha; for L: Apera spica-venti, herbicidal effect grade: 320 g/ha
Source text: Herbicidal Effect Test by Soil Treatment
Sterilized diluvial soil was placed in a plastic box having a length of 21 cm, a width of 13 cm, and a depth of 7 cm. Each of the seeds of Digitaria ciliaris, Setaria viridis, Echinochloa crus-galli var. crus-galli, Avena fatua, Alopecurus myosuroides, Lolium multiflorum Lam., Apera spica-venti, Abutilon theophrasti, Amaranthus retroflexus, Chenopodium album, Stellaria media, Galium spurium, Veronica persica, corn, soybean, rice, wheat, beet, and rapeseed was sowed in a spot-like manner and was covered with the soil of a thickness of about 1.5 cm. Subsequently, the emulsion agent of the compound present invention prepared in accordance with Formulation Example 2 was diluted with water so as to be a predetermined herbicide amount and the diluted emulsion agent was uniformly applied to the surface of the soil with a small-size spray. The plastic box was placed in a greenhouse of 25° C. to 30° C. to grow plant. 3 weeks later from the herbicide application, the effect to each plant was investigated in accordance with the criteria of Test Example 1.

Avena fatua = assay: Test Example 4: herbicidal effect by soil treatment (symbol I); settings: for Herbicidal effect grade, I: Avena fatua: application herbicide amount 320 g/ha; for I: Avena fatua, herbicidal effect grade: 320 g/ha
Summary of the method: as §2

Alopecurus myosuroides [5] = assay: Test Example 4: herbicidal effect by soil treatment (symbol J); settings: for J: Alopecurus myosuroides, herbicidal effect grade: 320 g/ha
Summary of the method: as §2

[6] = test system: Echinochloa oryzacola Vasing.; assay: Test Example 2: herbicidal activity, application during weed generation in submerged conditions (symbol A); settings: Table 23; application herbicide amount 320 g/ha; grade 0-5 by criteria of Test Example 1
Summary of the method: (§3)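 Seeds sown in flooded alluvial soil (4 cm water) were grown in a 25-30° C greenhouse. At the one- to two-leaf stage, diluted emulsion of compound was applied to the water surface at a predetermined rate. Effect was scored 3 weeks later.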

Scirpus juncoides = assay: Test Example 2: herbicidal activity, application during weed generation in submerged conditions (symbol B); settings: Table 23; application herbicide amount 320 g/ha; grade 0-5 by criteria of Test Example 1
Summary of the method: as §3

CC(CC1CC(OC(=O)N2CCOCC2)=C(c2c(C)cc(-c3ccc(Cl)cc3)cc2C)C1=O)=NOCC(F)(F)F (mixture of isomers) [9-025]
Effect on crop grade, c: corn (corn [1]): 0 (Herbicidal ratio of 5% or lower (almost no effect)) | J: Alopecurus myosuroides, herbicidal effect grade (Alopecurus myosuroides [2]): 0 (Herbicidal ratio of 5% or lower (almost no effect)) | a (transplanted rice plant) effect on crop grade (transplanted rice plant): 0 (Herbicidal ratio of 5% or lower (almost no effect)) | H (Echinochloa crus-galli var. crus-galli) herbicidal effect grade [3]: 0 (Herbicidal ratio of 5% or lower (almost no effect)) | N: Amaranthus retroflexus, herbicidal effect grade (Amaranthus retroflexus): 0 (Herbicidal ratio of 5% or lower (almost no effect)) | R: Veronica persica, herbicidal effect grade (Veronica persica): 0 (Herbicidal ratio of 5% or lower (almost no effect)) | Herbicidal effect grade, M: Abutilon theophrasti (Abutilon theophrasti): 0 (Herbicidal ratio of 5% or lower (almost no effect)) | c: corn, effect on crop grade (corn [4]): 5 (Herbicidal ratio of 90% or more (almost completely withered)) | F: Digitaria ciliaris, herbicidal effect grade (Digitaria ciliaris): 5 (Herbicidal ratio of 90% or more (almost completely withered)) | Herbicidal effect grade, L: Apera spica-venti (Apera spica-venti): 0 (Herbicidal ratio of 5% or lower (almost no effect)) | Herbicidal effect grade, I: Avena fatua (Avena fatua): 0 (Herbicidal ratio of 5% or lower (almost no effect)) | Herbicidal effect grade, J: Alopecurus myosuroides (Alopecurus myosuroides [5]; application herbicide amount 320 g/ha): 0 (Herbicidal ratio of 5% or lower (almost no effect))

Cc1cc(Br)cc(C)c1C1=C(O)CC(CC(=NOCC(F)(F)F)C2CC2)C1=O (centres unmarked) [9-009]
Effect on crop grade, c: corn (corn [1]): 0 (Herbicidal ratio of 5% or lower (almost no effect)) | J: Alopecurus myosuroides, herbicidal effect grade (Alopecurus myosuroides [2]): 4 (Herbicidal ratio of 70% or higher and lower than 90%) | a (transplanted rice plant) effect on crop grade (transplanted rice plant): 5 (Herbicidal ratio of 90% or more (almost completely withered)) | Herbicidal effect grade, A: Echinochloa oryzacola Vasing. [6]: 2 (Herbicidal ratio of 20% or higher and lower than 40%) | H (Echinochloa crus-galli var. crus-galli) herbicidal effect grade [3]: 5 (Herbicidal ratio of 90% or more (almost completely withered)) | Herbicidal effect grade, B: Scirpus juncoides (Scirpus juncoides): 0 (Herbicidal ratio of 5% or lower (almost no effect)) | N: Amaranthus retroflexus, herbicidal effect grade (Amaranthus retroflexus): 0 (Herbicidal ratio of 5% or lower (almost no effect)) | R: Veronica persica, herbicidal effect grade (Veronica persica): 0 (Herbicidal ratio of 5% or lower (almost no effect)) | Herbicidal effect grade, M: Abutilon theophrasti (Abutilon theophrasti): 0 (Herbicidal ratio of 5% or lower (almost no effect)) | c: corn, effect on crop grade (corn [4]): 3 (Herbicidal ratio of 40% or higher and lower than 70%) | F: Digitaria ciliaris, herbicidal effect grade (Digitaria ciliaris): 4 (Herbicidal ratio of 70% or higher and lower than 90%) | Herbicidal effect grade, L: Apera spica-venti (Apera spica-venti): 1 (Herbicidal ratio of 5% or higher and lower than 20%) | Herbicidal effect grade, I: Avena fatua (Avena fatua): 0 (Herbicidal ratio of 5% or lower (almost no effect))

CC(CC1CC(O)=C(c2c(C)cc(C)cc2C)C1=O)=NOCc1ccccc1[N+](=O)[O-] (centres unmarked) [1-119]
c: corn, effect grade on crop (corn [1]): 0 (Herbicidal ratio of 5% or lower (almost no effect)) | J: Alopecurus myosuroides, herbicidal effect (criteria 0-5) (Alopecurus myosuroides [2]): 5 (Herbicidal ratio of 90% or more (almost completely withered)) | Effect grade on crop, a: transplanted rice plant (transplanted rice plant): 3 (Herbicidal ratio of 40% or higher and lower than 70%) | herbicidal effect on H (Echinochloa crus-galli var. crus-galli), grade 0-5 [3]: 5 (Herbicidal ratio of 90% or more (almost completely withered)) | N: Amaranthus retroflexus, herbicidal effect (criteria 0-5) (Amaranthus retroflexus): 0 (Herbicidal ratio of 5% or lower (almost no effect)) | R: Veronica persica, herbicidal effect (criteria 0-5) (Veronica persica): 3 (Herbicidal ratio of 40% or higher and lower than 70%) | M: Abutilon theophrasti, herbicidal effect grade (Abutilon theophrasti): 0 (Herbicidal ratio of 5% or lower (almost no effect)) | c: corn, effect on crop (criteria 0-5) (corn [4]): 2 (Herbicidal ratio of 20% or higher and lower than 40%) | F: Digitaria ciliaris, herbicidal effect (criteria 0-5) (Digitaria ciliaris): 5 (Herbicidal ratio of 90% or more (almost completely withered)) | L: Apera spica-venti, herbicidal effect grade (Apera spica-venti): 5 (Herbicidal ratio of 90% or more (almost completely withered)) | I: Avena fatua, herbicidal effect grade (Avena fatua): 1 (Herbicidal ratio of 5% or higher and lower than 20%) | J: Alopecurus myosuroides, herbicidal effect grade (Alopecurus myosuroides [5]): 4 (Herbicidal ratio of 70% or higher and lower than 90%)

CC(CC1CC(O)=C(c2c(C)cc(C)cc2C)C1=O)=NOCc1ccccc1Cl (centres unmarked) [1-113]
c: corn, effect grade on crop (corn [1]): 0 (Herbicidal ratio of 5% or lower (almost no effect)) | J: Alopecurus myosuroides, herbicidal effect (criteria 0-5) (Alopecurus myosuroides [2]): 4 (Herbicidal ratio of 70% or higher and lower than 90%) | Effect grade on crop, a: transplanted rice plant (transplanted rice plant): 3 (Herbicidal ratio of 40% or higher and lower than 70%) | Herbicidal effect grade, A: Echinochloa oryzacola Vasing. [6]: 3 (Herbicidal ratio of 40% or higher and lower than 70%) | Herbicidal effect grade, B: Scirpus juncoides (Scirpus juncoides): 3 (Herbicidal ratio of 40% or higher and lower than 70%) | N: Amaranthus retroflexus, herbicidal effect (criteria 0-5) (Amaranthus retroflexus): 0 (Herbicidal ratio of 5% or lower (almost no effect)) | R: Veronica persica, herbicidal effect (criteria 0-5) (Veronica persica): 4 (Herbicidal ratio of 70% or higher and lower than 90%) | M: Abutilon theophrasti, herbicidal effect grade (Abutilon theophrasti): 0 (Herbicidal ratio of 5% or lower (almost no effect)) | c: corn, effect on crop (criteria 0-5) (corn [4]): 0 (Herbicidal ratio of 5% or lower (almost no effect)) | F: Digitaria ciliaris, herbicidal effect (criteria 0-5) (Digitaria ciliaris): 5 (Herbicidal ratio of 90% or more (almost completely withered)) | L: Apera spica-venti, herbicidal effect grade (Apera spica-venti): 5 (Herbicidal ratio of 90% or more (almost completely withered)) | I: Avena fatua, herbicidal effect grade (Avena fatua): 3 (Herbicidal ratio of 40% or higher and lower than 70%) | J: Alopecurus myosuroides, herbicidal effect grade (Alopecurus myosuroides [5]): 3 (Herbicidal ratio of 40% or higher and lower than 70%)

CON=C(C)CC1CC(OC(=O)N(C)CCCCCl)=C(c2c(C)cc(C)cc2C)C1=O (centres unmarked) [1-126]
c: corn, effect grade on crop (corn [1]): 0 (Herbicidal ratio of 5% or lower (almost no effect)) | J: Alopecurus myosuroides, herbicidal effect (criteria 0-5) (Alopecurus myosuroides [2]): 5 (Herbicidal ratio of 90% or more (almost completely withered)) | Effect grade on crop, a: transplanted rice plant (transplanted rice plant): 3 (Herbicidal ratio of 40% or higher and lower than 70%) | herbicidal effect on H (Echinochloa crus-galli var. crus-galli), grade 0-5 [3]: 3 (Herbicidal ratio of 40% or higher and lower than 70%) | N: Amaranthus retroflexus, herbicidal effect (criteria 0-5) (Amaranthus retroflexus): 0 (Herbicidal ratio of 5% or lower (almost no effect)) | R: Veronica persica, herbicidal effect (criteria 0-5) (Veronica persica): 0 (Herbicidal ratio of 5% or lower (almost no effect)) | M: Abutilon theophrasti, herbicidal effect grade (Abutilon theophrasti): 0 (Herbicidal ratio of 5% or lower (almost no effect)) | c: corn, effect on crop (criteria 0-5) (corn [4]): 0 (Herbicidal ratio of 5% or lower (almost no effect)) | F: Digitaria ciliaris, herbicidal effect (criteria 0-5) (Digitaria ciliaris): 3 (Herbicidal ratio of 40% or higher and lower than 70%) | L: Apera spica-venti, herbicidal effect grade (Apera spica-venti): 0 (Herbicidal ratio of 5% or lower (almost no effect)) | I: Avena fatua, herbicidal effect grade (Avena fatua): 0 (Herbicidal ratio of 5% or lower (almost no effect)) | J: Alopecurus myosuroides, herbicidal effect grade (Alopecurus myosuroides [5]): 3 (Herbicidal ratio of 40% or higher and lower than 70%)

CON=C(CC1CC(O)=C(c2c(C)cc(C)cc2C)C1=O)C(F)(F)F (centres unmarked) [1-097]
c: corn, effect grade on crop (corn [1]): 1 (Herbicidal ratio of 5% or higher and lower than 20%) | J: Alopecurus myosuroides, herbicidal effect (criteria 0-5) (Alopecurus myosuroides [2]): 5 (Herbicidal ratio of 90% or more (almost completely withered)) | Effect grade on crop, a: transplanted rice plant (transplanted rice plant): 3 (Herbicidal ratio of 40% or higher and lower than 70%) | Herbicidal effect grade, A: Echinochloa oryzacola Vasing. [6]: 1 (Herbicidal ratio of 5% or higher and lower than 20%) | Herbicidal effect grade, B: Scirpus juncoides (Scirpus juncoides): 0 (Herbicidal ratio of 5% or lower (almost no effect)) | R: Veronica persica, herbicidal effect (criteria 0-5) (Veronica persica): 3 (Herbicidal ratio of 40% or higher and lower than 70%) | M: Abutilon theophrasti, herbicidal effect grade (Abutilon theophrasti): 0 (Herbicidal ratio of 5% or lower (almost no effect)) | c: corn, effect on crop (criteria 0-5) (corn [4]): 5 (Herbicidal ratio of 90% or more (almost completely withered)) | F: Digitaria ciliaris, herbicidal effect (criteria 0-5) (Digitaria ciliaris): 5 (Herbicidal ratio of 90% or more (almost completely withered)) | L: Apera spica-venti, herbicidal effect grade (Apera spica-venti): 0 (Herbicidal ratio of 5% or lower (almost no effect)) | I: Avena fatua, herbicidal effect grade (Avena fatua): 1 (Herbicidal ratio of 5% or higher and lower than 20%) | J: Alopecurus myosuroides, herbicidal effect grade (Alopecurus myosuroides [5]): 2 (Herbicidal ratio of 20% or higher and lower than 40%)

— patent US11000033B2, “Ketone or oxime compound, and herbicide” (NISSAN CHEMICAL CORPORATION, priority 2014, dated 2021)
